Molecules are shown by their SMILES.

The values that follow come from patent US12398154B2, “Azaquinazoline pan-KRas inhibitors” (Mirati Therapeutics, Inc., priority 2020, dated 2025).

Test [1] concerns the target KRas G12V (Homo sapiens, UniProt P01116, G12V). The test can be described thus: biochemical.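 Also: KRas binding measured by TR-FRET displacement at room temperature, IC50 fitted from percent of control values.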
Experimental: (§1) The ability of a compound to bind to KRas was measured using a TR-FRET displacement assay. […] After a 60-minute incubation at room temperature, the reaction was measured using a BMG LABTECH CLARIO star Plus via TR-FRET. […] The POC values were fit to a 4-parameter IC50 equation and the IC50 value reported.
Test [2] concerns the target T1, KRas G13D (Homo sapiens, UniProt P01116, G13D).
T1 construct: Biotinylated KRas (corresponding to amino acids 1-169, produced at Accelegan Inc.); biotin (biotinylated); purchased Accelegan Inc
The test can be described thus: KRas binding assay (TR-FRET displacement). For orientation: TR-FRET usually uses a lanthanide donor and a delayed reading to cut background.
Experimental: as §1

In test [3] the target is T2, KRas Q61H (Homo sapiens, UniProt P01116, Q61H).
T2 construct: Biotinylated KRas (corresponding to amino acids 1-169, produced at Accelegan Inc.); biotin (biotinylated); purchased Accelegan Inc
T2 sequence (P01116 1-169 isoform P01116-2 Q61H): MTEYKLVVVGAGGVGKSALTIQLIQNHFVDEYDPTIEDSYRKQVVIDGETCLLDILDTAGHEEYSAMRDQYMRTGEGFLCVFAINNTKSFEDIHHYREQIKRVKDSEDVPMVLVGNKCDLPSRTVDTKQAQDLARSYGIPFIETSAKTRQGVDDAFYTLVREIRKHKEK
The test can be described thus: KRas binding assay (TR-FRET displacement).
Experimental: as §1

Test [4] has as its target KRas WT (Homo sapiens, UniProt P01116). The test can be described thus: biochemical.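 Also: binding to KRas read as TR-FRET displacement after a one-hour room-temperature incubation, IC50 derived from percent-of-control values.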
Experimental: as §1
The target in test [5] is KRas G12R (Homo sapiens, UniProt P01116, G12R). The test can be described thus: biochemical.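 Also: TR-FRET displacement assay of compound binding to KRas, read after one hour at room temperature, potency from a four-parameter fit of percent-of-control values.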
Sequence of KRas G12R (P01116 1-169 isoform P01116-2 G12R): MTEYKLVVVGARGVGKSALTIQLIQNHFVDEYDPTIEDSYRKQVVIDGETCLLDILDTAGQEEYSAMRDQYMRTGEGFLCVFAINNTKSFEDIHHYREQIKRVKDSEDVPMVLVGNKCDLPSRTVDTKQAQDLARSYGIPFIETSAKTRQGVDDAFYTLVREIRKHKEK
Experimental: as §1
Test [6] concerns the target KRas G12S (Homo sapiens, UniProt P01116, G12S). The test can be described thus: biochemical.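 Also: TR-FRET displacement binding to KRas, read after one hour incubation at room temperature, IC50 from four-parameter fit of percent of control.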
Experimental: as §1
The target of test [7] is KRas G12D (Homo sapiens, UniProt P01116, G12D). The test can be described thus: biochemical.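 Also: TR-FRET displacement binding assay on KRas, read after a one-hour incubation at room temperature, IC50 fitted from percent-of-control values.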
Sequence of KRas G12D (P01116 1-169 isoform P01116-2 G12D): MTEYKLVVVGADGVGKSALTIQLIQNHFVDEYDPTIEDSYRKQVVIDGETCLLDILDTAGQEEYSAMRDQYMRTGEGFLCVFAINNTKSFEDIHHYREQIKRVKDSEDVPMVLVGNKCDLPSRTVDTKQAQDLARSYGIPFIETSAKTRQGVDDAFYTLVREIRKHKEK
Experimental: as §1
For test [8], the target named is KRas G12C (Homo sapiens, UniProt P01116, G12C). Put plainly: biochemical.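 Also: binding to KRas assessed by TR-FRET displacement after one hour incubation at room temperature, potency fitted from percent-of-control values.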
Sequence of KRas G12C (P01116 1-169 isoform P01116-2 G12C): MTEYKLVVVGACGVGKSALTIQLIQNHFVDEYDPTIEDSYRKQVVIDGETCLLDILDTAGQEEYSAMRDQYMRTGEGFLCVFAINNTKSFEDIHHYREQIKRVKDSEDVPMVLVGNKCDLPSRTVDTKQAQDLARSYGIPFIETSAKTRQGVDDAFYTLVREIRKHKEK
Experimental: as §1
Test [9] has as its target KRas G12A (Homo sapiens, UniProt P01116, G12A). The test can be described thus: biochemical.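 Also: binding to KRas measured by TR-FRET displacement after one hour at room temperature, IC50 from a four-parameter fit of percent-of-control values.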
Experimental: as §1

Sequence of KRas WT (P01116 1-169 isoform P01116-2): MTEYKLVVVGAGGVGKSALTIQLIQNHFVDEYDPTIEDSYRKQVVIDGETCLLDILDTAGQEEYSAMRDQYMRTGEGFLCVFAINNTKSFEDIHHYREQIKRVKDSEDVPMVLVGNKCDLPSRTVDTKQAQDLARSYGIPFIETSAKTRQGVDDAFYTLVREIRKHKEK
Sequence of KRas G12S (P01116 1-169 isoform P01116-2 G12S): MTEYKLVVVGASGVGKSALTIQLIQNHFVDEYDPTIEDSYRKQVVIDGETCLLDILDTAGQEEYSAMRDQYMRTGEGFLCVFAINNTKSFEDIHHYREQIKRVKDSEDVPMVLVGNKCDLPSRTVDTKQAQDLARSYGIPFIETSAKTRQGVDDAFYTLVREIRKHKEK
Sequence of KRas G12V (P01116 1-169 isoform P01116-2 G12V): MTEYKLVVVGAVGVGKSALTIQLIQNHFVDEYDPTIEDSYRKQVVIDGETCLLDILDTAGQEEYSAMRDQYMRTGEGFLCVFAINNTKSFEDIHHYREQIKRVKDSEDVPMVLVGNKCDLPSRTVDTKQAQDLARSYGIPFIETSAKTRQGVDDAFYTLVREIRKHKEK
Sequence of KRas G12A (P01116 1-169 isoform P01116-2 G12A): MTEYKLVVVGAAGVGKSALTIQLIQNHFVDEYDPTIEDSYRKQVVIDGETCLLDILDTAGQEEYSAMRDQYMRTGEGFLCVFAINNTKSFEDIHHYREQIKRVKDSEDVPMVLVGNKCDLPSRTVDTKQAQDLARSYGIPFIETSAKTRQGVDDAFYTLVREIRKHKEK
T1 sequence (P01116 1-169 isoform P01116-2 G13D): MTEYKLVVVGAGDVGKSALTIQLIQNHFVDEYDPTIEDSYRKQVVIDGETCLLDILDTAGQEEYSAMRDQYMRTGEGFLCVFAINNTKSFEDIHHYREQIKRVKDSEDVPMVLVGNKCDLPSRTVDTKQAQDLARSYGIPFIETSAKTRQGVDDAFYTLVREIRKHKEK

For orientation: IC50 means the concentration needed to halve the response being measured. Regarding `O=C1NCC2(CCN(c3nc(OCC45CCCN4CCC5)nc4c(F)c(-c5cccc6cccc(F)c56)ncc34)CC2)N1` [Example 217, 8-(8-fluoro-7-(8-fluoronaphthalen-1-yl)-2-((tetrahydro-1H-pyrrolizin-7a(5H)-yl)methoxy)pyrido[4,3-d]pyrimidin-4-yl)-1,3,8-triazaspiro[4.5]decan-2-one], the IC50 came to 5.16 µM in [1]; 11600 nM in test [2]; 19500 nM in [3]; 14 µM in test [4]; 7.57 µM in test [5]; 11.3 µM in [6]. For the same compound, the results for the 50% inhibitory concentration (IC50) in test [7], in [8] and in test [9] were 64.4 µM, 9.88 µM and 8.99 µM, respectively.

Consider `CCc1c(F)ccc2cc(O)cc(-c3ncc4c(N5CCCCC5)nc(OC[C@@H]5C[C@@H](O)CN5C)nc4c3F)c12` [Example 6], for which the IC50 in test [1] is 0.019 µM; in test [2], 21 nM; in test [3], 23 nM; in test [4] it was 0.022 µM; in test [5], 0.014 µM; in test [6], 0.02 µM. Also, the IC50 in test [7] turned out to be 0.029 µM; in test [8] it was 0.018 µM; in test [9] it was 0.016 µM.

On to `OC1CC2CC1CN(c1nc(OCC34CCCN3CCC4)nc3c(F)c(-c4cccc5cccc(F)c45)ncc13)C2` (stereo not drawn) [Example 81, 3-(8-fluoro-7-(8-fluoronaphthalen-1-yl)-2-((hexahydro-1H-pyrrolizin-7a-yl)methoxy)pyrido[4,3-d]pyrimidin 4-yl)-3-azabicyclo[3.2.1]octan-6-ol], for which the half-maximal inhibitory concentration (IC50) in test [1] amounted to 0.802 µM; in test [2] it was 860 nM; in test [3], 1170 nM; in test [4] it was 0.864 µM; in test [5], 1.04 µM; in test [6], 0.531 µM. Also, the IC50 in test [7] was determined as 3.56 µM; in [8], 0.891 µM; in [9] it was 0.759 µM.

As for `Oc1cccc2c1CN(c1nc(OCC34CCCN3CCC4)nc3c(F)c(-c4cccc5cccc(F)c45)ncc13)C2` [Example 120, 2-(8-fluoro-7-(8-fluoronaphthalen-1-yl)-2-((tetrahydro-1H-pyrrolizin-7a(5H)-yl)methoxy)pyrido[4,3-d]pyrimidin-4-yl)isoindolin-4-ol], the IC50 in test [1] was at least 100 µM; in test [2] it was at least 100000 nM; in [3] it was at least 100000 nM; in [4], 34.1 µM; in [5], at least 100 µM; in [6] it was 85.3 µM. Also, the IC50 in [7] is at least 100 µM; in test [8], 19.8 µM; in [9], 33.3 µM.

In the case of `CN(Cc1c[nH]c2ncccc12)c1nc(OCC23CCCN2CCC3)nc2c(F)c(-c3cccc4cccc(F)c34)ncc12` [Example 223, N-((1H-pyrrolo[2,3-b]pyridin-3-yl)methyl)-8-fluoro-7-(8-fluoronaphthalen-1-yl)-N-methyl-2-((tetrahydro-1H-pyrrolizin-7a(5H)-yl)methoxy)pyrido[4,3-d]pyrimidin-4-amine], the half-inhibitory concentration (IC50) in test [1] came out at 0.93 µM; in [2] it was 6870 nM; in test [3], 8650 nM; in test [4], 5.6 µM; in [5], 0.665 µM; in test [6] it was 1.8 µM. Besides, the IC50 was 21.1 µM in test [7], 1.19 µM in test [8] and 1.36 µM in test [9].

Take `Fc1c(-c2cccc3cccc(Cl)c23)ncc2c(N3CCCC(n4cccn4)C3)nc(OCC34CCCN3CCC4)nc12` (stereo not drawn) [Example 109, 4-(3-(1H-pyrazol-1-yl)piperidin-1-yl)-7-(8-chloronaphthalen-1-yl)-8-fluoro-2-((tetrahydro-1H-pyrrolizin-7a(5H)-yl)methoxy)pyrido[4,3-d]pyrimidine]: the IC50 in test [1] turned out to be 7.43 µM; in test [2], 4340 nM; in test [3], 4940 nM; in test [4], 3.99 µM; in test [5], 4.11 µM; in test [6], 7.39 µM. Also, the IC50 amounted to 10.2 µM in [7], 4.25 µM in test [8] and 4.28 µM in test [9].

Consider `O=CNC1CCCN(c2nc(OCC34CCCN3CCC4)nc3c(F)c(-c4cccc5cccc(F)c45)ncc23)C1` (stereo not drawn) [Example 242, N-(1-(8-fluoro-7-(8-fluoronaphthalen-1-yl)-2-((hexahydro-1H-pyrrolizin-7a-yl)methoxy)pyrido[4,3-d]pyrimidin-4-yl)piperidin-3-yl)formamide], for which the IC50 in [1] is 7.63 µM; in test [2], 7860 nM; in [3], 13600 nM; in test [4] it was 11 µM; in [5], 13 µM; in test [6] it was 6.23 µM. In addition, the results for the IC50 in test [7], in [8] and in [9] were 8.03 µM, 6.96 µM and 8.19 µM, respectively.

As to `Cn1ncc2ccc(Nc3nc(OCC45CCCN4CCC5)nc4c(F)c(-c5cccc6cccc(F)c56)ncc34)cc21` [Example 99, 8-fluoro-7-(8-fluoronaphthalen-1-yl)-2-((hexahydro-1H-pyrrolizin-7a-yl)methoxy)-N-(1-methyl-1H-indazol-6-yl)pyrido[4,3-d]pyrimidin-4-amine], the IC50 was determined as 3.97 µM in test [1]; 59800 nM in [2]; 98500 nM in [3]; 32.4 µM in test [4]; 16.7 µM in test [5]; 21.7 µM in test [6]. For the same compound, the IC50 in [7] was at least 100 µM; in test [8] it was 8.33 µM; in test [9] it was 13.6 µM.

Consider `NC(=O)C1CCCN(c2nc(OCC34CCCN3CCC4)nc3c(F)c(-c4cccc5cccc(F)c45)ncc23)C1` (stereo not drawn) [Example 86, 1-(8-fluoro-7-(8-fluoronaphthalen-1-yl)-2-((hexahydro-1H-pyrrolizin-7a-yl)methoxy)pyrido[4,3-d]pyrimidin-4-yl)piperidine-3-carboxamide], for which the half-maximal inhibitory concentration (IC50) was 3.1 µM in test [1]; 3000 nM in test [2]; 4780 nM in test [3]; 2.41 µM in test [4]; 8.49 µM in test [5]; 2.39 µM in test [6]. For the same compound, the figures for the IC50 in [7], in [8] and in test [9] were 6.9 µM, 3.08 µM and 2.25 µM, respectively.

On to `Fc1c(-c2cccc3cccc(F)c23)ncc2c(N3CCCC4(CC4)C3)nc(OCC34CCCN3CCC4)nc12` [Example 114, 8-fluoro-7-(8-fluoronaphthalen-1-yl)-4-(5-azaspiro[2.5]octan-5-yl)-2-((tetrahydro-1H-pyrrolizin-7a(5H)-yl)methoxy)pyrido[4,3-d]pyrimidine], for which the concentration for half-maximal inhibition (IC50) turned out to be 2.86 µM in [1]; 29900 nM in [2]; 43300 nM in test [3]; 2.71 µM in [4]; 3.75 µM in test [5]; 2.81 µM in test [6]. Moreover, the 50% inhibitory concentration (IC50) came out at 4.38 µM in [7], 2.48 µM in test [8] and 2.64 µM in [9].

As for `OC1CCCN(c2nc(OCC34CCCN3CCC4)nc3c(F)c(-c4cccc5cccc(F)c45)ncc23)CC1` (stereo not drawn) [Example 129, 1-(8-fluoro-7-(8-fluoronaphthalen-1-yl)-2-((tetrahydro-1H-pyrrolizin-7a(5H)-yl)methoxy)pyrido[4,3-d]pyrimidin-4-yl)azepan-4-ol], the concentration for half-maximal inhibition (IC50) worked out at 2.79 µM in test [1]; 2500 nM in [2]; 4360 nM in test [3]; 3.11 µM in test [4]; 4.43 µM in [5]; 2.79 µM in [6]. For the same compound, the results for the IC50 in test [7], in test [8] and in test [9] were 2.26 µM, 2.53 µM and 2.69 µM, respectively.

Turning to `NC(=O)c1cc2n(n1)CCCN(c1nc(OCC34CCCN3CCC4)nc3c(F)c(-c4cccc5cccc(F)c45)ncc13)C2` [Example 258, 5-(8-fluoro-7-(8-fluoronaphthalen-1-yl)-2-((hexahydro-1H-pyrrolizin-7a-yl)methoxy)pyrido[4,3-d]pyrimidin-4-yl)-5,6,7,8-tetrahydro-4H-pyrazolo[1,5-a][1,4]diazepine-2-carboxamide], the half-inhibitory concentration (IC50) worked out at 0.858 µM in test [1]; 4380 nM in test [2]; 4610 nM in test [3]; 3.25 µM in [4]; 1.18 µM in test [5]; 1.01 µM in [6]. The concentration for half-maximal inhibition (IC50) in test [7] stood at 0.32 µM; in test [8] it was 1.38 µM; in test [9], 2.07 µM.

As for `Fc1c(-c2cccc3cccc(F)c23)ncc2c(NCCCc3cc[nH]n3)nc(OCC34CCCN3CCC4)nc12` [Example 84, N-(3-(1H-pyrazol-3-yl)propyl)-8-fluoro-7-(8-fluoronaphthalen-1-yl)-2-((hexahydro-1H-pyrrolizin-7a-yl)methoxy)pyrido[4,3-d] pyrimidin-4-amine], the IC50 was 1.86 µM in test [1]; 5070 nM in [2]; 5860 nM in test [3]; 4.29 µM in test [4]; 2.5 µM in test [5]; 2.07 µM in test [6]. In addition, the 50% inhibitory concentration (IC50) in test [7] is 12.7 µM; in test [8] it was 0.863 µM; in test [9], 1.65 µM.
